How the values were obtained:
[1] = system: Canis familiaris; test: Compound was evaluated for diuretic activity, in female mongrel dogs by measuring volume of urine, after iv administration of 5 mg/kg (control/compound treatment results) Control = 1; assay type: ADME, organism-based, Canis lupus familiaris; design: dose 5 mg/kg, route intravenous; settings: dog, in vivo
[2] = organism: Canis familiaris; test: Volume of urine in dog; assay type: ADME, organism-based, Canis lupus familiaris; settings: in vivo
[3] = volume of urine at 3 mg/kg; assay type: ADME, organism-based; design: dose 3 mg/kg; settings: in vivo
[4] = volume of urine at 81 mg/kg; assay type: ADME, organism-based; design: dose 81 mg/kg; settings: in vivo
[5] = volume of urine at 9 mg/kg; assay type: ADME, organism-based; design: dose 9 mg/kg; settings: in vivo
[6] = system: Pan troglodytes; test: (§1) Compound was evaluated for diuretic activity in chimpanzee measured as increase in volume of urine at 1 mg/kg; assay type: functional
[7] = system: Pan troglodytes; test: Compound was evaluated for diuretic activity in chimpanzee measured as increase in volume of urine at 5 mg/kg; assay type: functional
[8] = system: Pan troglodytes; test: Compound was evaluated for diuretic activity in chimpanzee measured as clearance of […] and urate after intra venous administration of 1 mg/kg.; assay type: functional, Urine
[9] = system: Pan troglodytes; test: Compound was evaluated for diuretic activity in chimpanzee measured as clearance of […] and urate after peroral administration of 5 mg/kg; assay type: functional, Urine; settings: route oral
[10] = system: Pan troglodytes; test: (§2) Compound was evaluated for diuretic activity in chimpanzee measured as increase in the number of microequivalents of Na+ /min at 1 mg/kg; assay type: functional, Urine
[11] = system: Pan troglodytes; test: Compound was evaluated for diuretic activity in chimpanzee measured as increase in the number of microequivalents of Na+ /min at 5 mg/kg; assay type: functional, Urine
[12] = system: Pan troglodytes; test: (§3) Compound was evaluated for diuretic activity in chimpanzee measured as increase in the number of microequivalents of Cl- electrolyte/min at 1 mg/kg; assay type: functional, Urine
[13] = system: Pan troglodytes; test: Compound was evaluated for diuretic activity in chimpanzee measured as increase in the number of microequivalents of Cl- electrolyte/min at 5 mg/kg; assay type: functional, Urine
[14] = system: Pan troglodytes; test: Compound was evaluated for diuretic activity in chimpanzee measured as increase in the number of microequivalents of K+ /min at 1 mg/kg; assay type: functional, Urine
[15] = system: Canis familiaris; test: Compound was evaluated for diuretic activity, in female mongrel dogs by measuring amount of K+ in urine after iv administration of 5 mg/kg (control/compound treatment results) Control = 13; assay type: functional, Canis lupus familiaris
[16] = system: Canis familiaris; test: Compound was evaluated for diuretic activity, in female mongrel dogs by measuring amount of Cl- in urine after iv administration of 5 mg/kg (control/compound treatment results) Control = 6; assay type: functional, Canis lupus familiaris
[17] = system: Pan troglodytes; test: Compound was evaluated for diuretic activity in chimpanzee measured as increase in the number of microequivalents of K+ /min at 5 mg/kg; assay type: functional, Urine
[18] = system: Canis familiaris; test: Compound was evaluated for diuretic activity, in female mongrel dogs by measuring amount of Na+ in urine after iv administration of 5 mg/kg (control/compound treatment results) Control = 79; assay type: functional, Canis lupus familiaris
[19] = system: Canis familiaris; test: Compound was evaluated for diuretic activity, administered orally in female mongrel dogs (5 mg/kg) measured as milliequivalents of Cl-; assay type: functional, Canis lupus familiaris, Urine
[20] = system: Canis familiaris; test: Compound was evaluated for diuretic activity, administered orally in female mongrel dogs (5 mg/kg) measured as milliequivalents of K; assay type: functional, Canis lupus familiaris, Urine
[21] = system: Canis familiaris; test: Compound was evaluated for diuretic activity, administered orally in female mongrel dogs (5 mg/kg) measured as milliequivalents of Na; assay type: functional, Canis lupus familiaris, Urine
[22] = system: Rattus norvegicus; test: Compound was evaluated for diuretic activity administered orally in female rats measured as milliequivalents of Na+x 100 / cage at 81 mg/kg; assay type: functional, Urine; settings: route oral
[23] = system: Rattus norvegicus; test: Compound was evaluated for diuretic activity administered orally in female rats measured as milliequivalents of Na+x 100 / cage at 9 mg/kg; assay type: functional, Urine; settings: route oral
[24] = system: Rattus norvegicus; test: Compound was evaluated for diuretic activity administered orally in female rats measured as milliequivalents of Cl-+x 100 / cage at 27 mg/kg; assay type: functional, Urine; settings: route oral
[25] = system: Rattus norvegicus; test: Compound was evaluated for diuretic activity administered orally in female rats measured as milliequivalents of Cl-x 100 / cage at 3 mg/kg; assay type: functional, Urine; settings: route oral
[26] = system: Rattus norvegicus; test: Compound was evaluated for diuretic activity administered orally in female rats measured as milliequivalents of Cl-x 100 / cage at 81 mg/kg; assay type: functional, Urine; settings: route oral
[27] = system: Rattus norvegicus; test: Compound was evaluated for diuretic activity administered orally in female rats measured as milliequivalents of Cl-x 100 / cage at 9 mg/kg; assay type: functional, Urine; settings: route oral
[28] = system: Rattus norvegicus; test: Compound was evaluated for diuretic activity administered orally in female rats measured as milliequivalents of K+x 100 / cage at 27 mg/kg; assay type: functional, Urine; settings: route oral
[29] = system: Rattus norvegicus; test: Compound was evaluated for diuretic activity administered orally in female rats measured as milliequivalents of K+x 100 / cage at 3 mg/kg; assay type: functional, Urine; settings: route oral
[30] = system: Rattus norvegicus; test: Compound was evaluated for diuretic activity administered orally in female rats measured as milliequivalents of K+x 100 / cage at 81 mg/kg; assay type: functional, Urine; settings: route oral
[31] = system: Rattus norvegicus; test: Compound was evaluated for diuretic activity administered orally in female rats measured as milliequivalents of K+x 100 / cage at 9 mg/kg; assay type: functional, Urine; settings: route oral
[32] = system: Rattus norvegicus; test: Compound was evaluated for diuretic activity administered orally in female rats measured as milliequivalents of Na+x 100 / cage at 27 mg/kg; assay type: functional, Urine; settings: route oral
[33] = system: Rattus norvegicus; test: Compound was evaluated for diuretic activity administered orally in female rats measured as milliequivalents of Na+x 100 / cage at 3 mg/kg; assay type: functional, Urine; settings: route oral
[34] = volume of urine at 27 mg/kg; assay type: ADME, organism-based; design: dose 27 mg/kg; settings: in vivo
[35] = organism: Canis familiaris; test: volume of urine in dog; assay type: ADME, organism-based, Canis lupus familiaris; settings: in vivo
[36] = system: Pan troglodytes; test: as §2; assay type: functional, Urine; remark: listed apart in the source
[37] = system: Pan troglodytes; test: as §3; assay type: functional, Urine; remark: listed apart in the source
[38] = system: Canis familiaris; test: Compound was evaluated for diuretic activity, in female mongrel dogs by measuring amount of Cl- in urine after iv administration of 5 mg/kg (control/compound treatment results) Control = 1; assay type: functional, Canis lupus familiaris
[39] = system: Canis familiaris; test: Compound was evaluated for diuretic activity, in female mongrel dogs by measuring amount of K+ in urine after iv administration of 5 mg/kg (control/compound treatment results) Control = 18; assay type: functional, Canis lupus familiaris
[40] = system: Canis familiaris; test: Compound was evaluated for diuretic activity, in female mongrel dogs by measuring amount of Na+ in urine after iv administration of 5 mg/kg (control/compound treatment results) Control = 29; assay type: functional, Canis lupus familiaris
[41] = system: Pan troglodytes; test: as §1; assay type: ADME, organism-based; design: dose 1 mg/kg; settings: in vivo
[42] = system: Pan troglodytes; test: Compound was evaluated for diuretic activity in chimpanzee measured as clearance of […] and urate after intra venous administration of 5 mg/kg.; assay type: functional, Urine
[43] = system: Pan troglodytes; test: Compound was evaluated for diuretic activity in chimpanzee measured as increase in the number of microequivalents of cl-/min at 5 mg/kg; assay type: functional, Urine

| Urine volume [1] [mL/min] | Urine volume [3] [mL] | Urine volume [4] [mL] | Urine volume [5] [mL] | Compound | Increase in volume [6] [mL/min] | Increase in volume [7] [mL/min] | Delta C urate / delta C insulin [8] | Delta C urate / delta C insulin [9] | Increase [10] | Increase [11] | Increase [12] | Increase [14] | Increase [17] | Activity [19] | Activity [20] | Activity [21] | Activity [22] | Activity [23] | Activity [24] | Activity [25] | other results |
| --- | --- | --- | --- | --- | --- | --- | --- | --- | --- | --- | --- | --- | --- | --- | --- | --- | --- | --- | --- | --- | --- |
| 2 | 27 | 38 | 26 | CCC1(CC)C(=O)c2cc(OCC(=O)O)c(C)c(Cl)c2C1=O | 0.4 | 2.7 | 0.082 | 0.138 | 25 | 290 | 123 | 131 | 132 | 10 | 5 | 7 | 251 | 92 | 222 | 82 | Urine volume [2]: 570 mL; Increase [13]: 285; Activity [15]: 27 u equiv min-1; Activity [16]: 157 u equiv min-1; Activity [18]: 259 u equiv min-1; Activity [26]: 369; Activity [27]: 124; Activity [28]: 62; Activity [29]: 29; Activity [30]: 106; Activity [31]: 43; Activity [32]: 158; Activity [33]: 70; Urine volume [34]: 33 mL |
| 3 | 26 | 46 | 28 | NS(=O)(=O)c1cc(C(=O)O)c(NCc2ccco2)cc1Cl [FUROSEMIDE] | 7.3 | – | -0.005 | -0.083 | 749 | – | 928 | 154 | – | 8 | 31 | 23 | 253 | 69 | 228 | 71 | Urine volume [35]: 36 mL; Increase [6]: 0.8 mL/min; Increase [36]: 738; Increase [37]: 961; P Increase [14]: 100; Activity [38]: 1081 u equiv min-1; Activity [39]: 141 u equiv min-1; Activity [40]: 960 u equiv min-1; Activity [26]: 328; Activity [27]: 96; Activity [28]: 60; Activity [29]: 31; Activity [30]: 97; Activity [31]: 39; Activity [32]: 150; Activity [33]: 57; Urine volume [34]: 36 mL |
| – | – | – | – | CCC1C(=O)c2cc(OC)c(Cl)c(Cl)c2C1=O (stereo not drawn) | – | 0.1 | – | 0.008 | 3 | 4 | 13 | 26 | 27 | – | – | – | – | – | – | – | Increase in volume [41]: 0.1 mL/min; Delta C urate / delta C insulin [42]: 0; Increase [43]: 10 |

Source: ChEMBL document CHEMBL1122681, “(Acylaryloxy)acetic acid diuretics. 5. [(2-Alkyl- and 2,2-disubstituted-1,3-dioxo-5-indanyl)oxy]acetic acids” (J Med Chem, 1984)
